Data reported in patent US5242908A, “Use of benzylphosphonic acid derivatives for the treatment of diseases caused by viruses” (priority 1990, dated 1993).
Read-outs that look alike come from different tables or passages of the source.

How the values were obtained:
Herpes simplex 1 = format: in vivo, NMRI mice; details: for Survivors: groups of 5 mice
Method: The treatment was performed twice daily, starting after the infection. The substances were administered to the experimental animals 5 or 9 times (see Table 1).
The chemotherapeutic action can be seen from Table 1.

in vitro = details: hela and vero cells
[1] = po 9 × 0 mg/kg (so in the source)

Row | SMILES | Average survival time (Herpes simplex 1; sc 5 × 2.5 mg/kg) [days] | Survivors (Herpes simplex 1; sc 5 × 2.5 mg/kg) | Average survival time (Herpes simplex 1; sc 5 × 25 mg/kg) [days] | Survivors (Herpes simplex 1; sc 5 × 25 mg/kg) | Average survival time (Herpes simplex 1; sc 5 × 250 mg/kg) [days] | Survivors (Herpes simplex 1; sc 5 × 250 mg/kg) | Average survival time (Herpes simplex 1; po 5 × 2.5 mg/kg) [days] | Survivors (Herpes simplex 1; po 5 × 2.5 mg/kg) | Average survival time (Herpes simplex 1; po 5 × 25 mg/kg) [days] | Survivors (Herpes simplex 1; po 5 × 25 mg/kg) | other results
1 | CCCCOP(=O)(Cc1ccccc1C)OCCCC [M, di-n-butyl 2-methylbenzylphosphonate] | 7.0 | 4 | 7.5 | 3 | 7.7 | 1 |  |  |  |  | 
2 | Cc1ccccc1CP(=O)(O)O [O, di-triethylammonium 2-methylbenzylphosphonate] |  |  |  |  |  |  |  |  |  |  | MNTC (in vitro): 133 µg/mL
3 | CCOP(=O)(Cc1cc(C)ccc1C)OCC [K, diethyl 2,5-dimethylbenzylphosphonate] | 7.4 | 0 | 8.6 | 0 | 8.0 | 3 |  |  |  |  | 
4 | CCOP(=O)(Cc1ccccc1C)OCC [E, diethyl 2-methylbenzylphosphonate] |  |  |  |  |  |  |  |  |  |  | Average survival time (Herpes simplex 1; [1]): 7.0 days; Survivors (Herpes simplex 1; [1]): 2; Average survival time (Herpes simplex 1; po 9 × 3 mg/kg): 5.7 days; Survivors (Herpes simplex 1; po 9 × 3 mg/kg): 1; Average survival time (Herpes simplex 1; po 9 × 30 mg/kg): 7.5 days; Survivors (Herpes simplex 1; po 9 × 30 mg/kg): 3; Average survival time (Herpes simplex 1; sc 9 × 3 mg/kg): 6.3 days; Survivors (Herpes simplex 1; sc 9 × 3 mg/kg): 1; Average survival time (Herpes simplex 1; sc 9 × 10 mg/kg): 6.5 days; Survivors (Herpes simplex 1; sc 9 × 10 mg/kg): 3; Average survival time (Herpes simplex 1; sc 9 × 30 mg/kg): 6.7 days; Survivors (Herpes simplex 1; sc 9 × 30 mg/kg): 2
5 | CCOP(=O)(Cc1ccc(Br)cc1)OCC [D, diethyl 4-bromobenzylphosphonate] | 8.5 | 3 | 8.0 | 4 |  |  | 7.0 | 2 | 6.0 | 3 | Average survival time (Herpes simplex 1; po 5 × 0.25 mg/kg): 8.7 days; Survivors (Herpes simplex 1; po 5 × 0.25 mg/kg): 2; Average survival time (Herpes simplex 1; po 9 × 3 mg/kg): 8.0 days; Survivors (Herpes simplex 1; po 9 × 3 mg/kg): 4; Average survival time (Herpes simplex 1; po 9 × 10 mg/kg): 8.3 days; Survivors (Herpes simplex 1; po 9 × 10 mg/kg): 2; Average survival time (Herpes simplex 1; po 9 × 30 mg/kg): 10.5 days; Survivors (Herpes simplex 1; po 9 × 30 mg/kg): 3; Average survival time (Herpes simplex 1; sc 5 × 0.25 mg/kg): 9.0 days; Survivors (Herpes simplex 1; sc 5 × 0.25 mg/kg): 1
6 | CCOP(=O)(Cc1ccccc1Br)OCC [C, diethyl 2-bromobenzylphosphonate] |  |  |  |  |  |  | 6.7 | 2 | 8.5 | 3 | Average survival time (Herpes simplex 1; po 5 × 250 mg/kg): 8.0 days; Survivors (Herpes simplex 1; po 5 × 250 mg/kg): 2
7 | COP(=O)(Cc1ccccc1C)OC [A, dimethyl 2-methylbenzylphosphonate] | 12.0 | 2 | 9.0 | 4 | 9.0 | 4 | 10.5 | 3 | 9.0 | 3 | 
8 | Cc1ccccc1CP(=O)(OC(C)C)OC(C)C [L, diisopropyl 2-methylbenzylphosphonate] | 8.3 | 1 | 7.4 | 0 | 6.5 | 3 |  | 5 | 8.7 | 2 | Average survival time (Herpes simplex 1; po 5 × 250 mg/kg): 8.7 days; Survivors (Herpes simplex 1; po 5 × 250 mg/kg): 2
